Here are results for 31 compounds from patent US9988379B2, “GPR40 receptor agonist, methods of preparing the same, and pharmaceutical compositions containing the same as an active agent” (LG CHEM, LTD., priority 2012, dated 2018).

pEC50: −log10 of the molar value. Bounds are passed on as bounds.

T1 sequence (O14842 whole entry): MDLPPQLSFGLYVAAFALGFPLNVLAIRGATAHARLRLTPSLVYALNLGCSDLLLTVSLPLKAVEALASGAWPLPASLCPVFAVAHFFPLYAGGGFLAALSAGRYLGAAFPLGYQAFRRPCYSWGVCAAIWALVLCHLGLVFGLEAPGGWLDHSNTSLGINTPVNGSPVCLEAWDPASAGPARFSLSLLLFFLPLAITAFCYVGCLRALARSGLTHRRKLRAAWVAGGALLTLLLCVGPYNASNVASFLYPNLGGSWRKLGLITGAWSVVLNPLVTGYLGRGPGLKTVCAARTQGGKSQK

This assay addresses T1, human GPR40 (Homo sapiens, UniProt O14842).
T1 construct: expressed in transfected cells; host or cells: CHO-K1
As to the kind of experiment: Induction of Ca2+ (calcium flux assay) using human GPR40 expression cell line. The class given is cell-based. The conditions noted are these: read-out: EC0.5. The procedure: Evaluation of the Test Compounds for Induction of Ca^2+ Using Human GPR40 Expression Cell Line
The cell line expressing human GPR40 was generated by transfection of the GPR40 expression vector into CHO-K1 cell, and used in the following calcium flux assay.
The cell line was cultured in cell-culture medium (F-12 (Invitrogen) supplemented with 10% (v/v) FBS (Fetal Bovine Serum; Invitrogen), 0.5 mg/ml Geneticin (Invitrogen) and 1% (v/v) Antibiotic-Antimycotic solution (Invitrogen)) under the condition of 5% CO2 and 37° C. For calcium flux assay, the cells were diluted with the cell-culture medium to a concentration of 5×10^5 cells/ml, and the diluted cell suspension was dispensed in amount of 100 μl/well to a 96-well transparent bottom black polystyrene cell culture plate (Corning) and then cultured for 24 hours. The following concentrations of test compounds were added to these cells, and then the changes in intracellular calcium concentration were measured by FlexStation II384 (Molecular Devices). The following solution was prepared before the measurement.
First, a buffer solution for assay was prepared for use in the manufacture of fluorescent dye solution. This buffer solution was prepared by adding 1M HEPES solution (Invitrogen) to HBSS (Hanks' Balanced Salt Solution) (Invitrogen) and then adding 1M NaOH (Nacalai Tesque) to adjust pH to 7.4. Then the fluorescent dye solution was prepared according to the manufacturer's instruction attached to Calcium 5 Assay Kit (Molecular Devices), and the final DMSO concentration was adjusted to 2%.
The fluorescent dye solution was added in an amount of 100 μl/well to supernatant of the cell culture plate cultured for 24 hours. The plate was cultured for 1 hour under the condition of 5% CO2 and 37° C. so that the fluorescent dye was inserted into the cell.
Test compounds (i.e., the compounds prepared in the Examples) dissolved in dimethyl sulfoxide (DMSO ACROS) were diluted 200-fold in the buffer solution for assay to prepare compound solutions corresponding to the respective concentrations. […] 50 μl of the prepared sample solutions was added to each well of 96-well polypropylene plates (NUNC), and thereby a compound plate was prepared. Finally, the compound plate and the cell culture plate cultured for 1 hour with the fluorescent dye were placed in FlexStation II384.
After the above pre-treatment, the change in the intracellular calcium concentration when each concentration of the test compound solutions was added at 50 μl was measured by FlexStation II^384.
Then, the relative activity values depending on the concentration of the compound were plotted using Prism 4 software (GraphPad) to calculate the EC0.5 value.
Turning to `CC#C[C@@H](CC(=O)O)c1ccc(OCc2c(F)cc3ccn(Cc4ccccc4)c3c2C)cc1` [Example 49, (S)-3-[4-(1-benzyl-5-fluoro-7-methyl-1H-indol-6-ylmethoxy)-phenyl]-hex-4-ynoic acid], the pEC50 was 6.30 to 7.30.

`CC#C[C@@H](CC(=O)O)c1ccc(OCc2ccc3ccn(Cc4ccc(F)cc4)c3c2C)cc1` [Example 50, (S)-3-{4-[1-(4-fluoro-benzyl)-7-methyl-1H-indol-6-ylmethoxy]-phenyl}-hex-4-ynoic acid]: the pEC50 is 6.30 to 7.30.

For the compound `CC#C[C@@H](CC(=O)O)c1ccc(OCc2ccc3ccn(Cc4ccc(F)c(F)c4)c3c2C)cc1` [Example 51, (S)-3-{4-[1-(3,4-difluoro-benzyl)-7-methyl-1H-indol-6-ylmethoxy]-phenyl}-hex-4-ynoic acid], the pEC50 was 6.30 to 7.30.

As to `CC#C[C@@H](CC(=O)O)c1ccc(OCc2ccc3ccn(Cc4cc(F)cc(F)c4)c3c2C)cc1` [Example 52, (S)-3-{4-[1-(3,5-difluoro-benzyl)-7-methyl-1H-indol-6-ylmethoxy]-phenyl}-hex-4-ynoic acid], the pEC50 is 6.30 to 7.30.

On to `CC#C[C@@H](CC(=O)O)c1ccc(OCc2ccc3ccn(Cc4ccc(F)cc4F)c3c2C)cc1` [Example 53, (S)-3-{4-[1-(2,4-difluoro-benzyl)-7-methyl-1H-indol-6-ylmethoxy]-phenyl}-hex-4-ynoic acid], for which the pEC50 is 6.30 to 7.30.

`O=C(O)CCc1ccc(OCc2cccc3c2ccn3Cc2ccccc2)cc1F` [Example 54, 3-[4-(1-benzyl-1H-indol-4-ylmethoxy)-2-fluoro-phenyl]-propanoic acid]: the pEC50 is 6.30 to 7.30.

Turning to `Cc1c(COc2ccc(CCC(=O)O)c(F)c2)ccc2ccn(Cc3ccccc3)c12` [Example 55, 3-[4-(1-benzyl-7-methyl-1H-indol-6-ylmethoxy)-2-fluoro-phenyl]-propanoic acid], the pEC50 was 7.30 to 9.00.

As to `CC#C[C@@H](CC(=O)O)c1ccc(OCc2ccc3ccn(Cc4cscn4)c3c2C)cc1` [Example 56, (S)-3-[4-(7-methyl-1-thiazol-4-ylmethyl-1H-indol-6-ylmethoxy]-phenyl}-hex-4-ynoic acid], the pEC50 is 7.30 to 9.00.

As to `CC#C[C@@H](CC(=O)O)c1ccc(OCc2ccc3ccn(Cc4csc(C)n4)c3c2C)cc1` [Example 57, (S)-3-{4-[7-methyl-1-(2-methyl-thiazol-4-ylmethyl)-1H-indol-6-ylmethoxy]-phenyl}-hex-4-ynoic acid], the pEC50 is 7.30 to 9.00.

With `CC#C[C@@H](CC(=O)O)c1ccc(OCc2ccc3cn(Cc4ccccc4)nc3c2)cc1` [Example 58, (S)-3-[4-(2-benzyl-2H-indazol-6-ylmethoxy)-phenyl]-hex-4-ynoic acid], the pEC50 was 7.30 to 9.00.

On to `CC#C[C@@H](CC(=O)O)c1ccc(OCc2ccc3cnn(Cc4ccccc4)c3c2)cc1` [Example 59, (S)-3-[4-(1-benzyl-1H-indazol-6-ylmethoxy)-phenyl]-hex-4-ynoic acid], for which the pEC50 was 7.30 to 9.00.

Turning to `CC#C[C@@H](CC(=O)O)c1ccc(OCc2ccc3ccn(Cc4cnccn4)c3c2C)cc1` [Example 60, (S)-3-[4-(7-methyl-1-pyrazin-2-ylmethyl-1H-indol-6-ylmethoxy)-phenyl]-hex-4-ynoic acid], the pEC50 is 7.30 to 9.00.

As for `CC#C[C@@H](CC(=O)O)c1ccc(OCc2ccc3ccn(Cc4ccncn4)c3c2C)cc1` [Example 61, (S)-3-[4-(7-methyl-1-pyrimidin-4-ylmethyl-1H-indol-6-ylmethoxy)-phenyl]-hex-4-ynoic acid], the pEC50 was 7.30 to 9.00.

For the compound `CC#C[C@@H](CC(=O)O)c1ccc(OCc2ccc3c(F)cn(Cc4ccccc4)c3c2C)cc1` [Example 62, (S)-3-[4-(1-benzyl-3-fluoro-7-methyl-1H-indol-6-ylmethoxy)-phenyl]-hex-4-ynoic acid], the pEC50 was 6.30 to 7.30.

As for `CC#C[C@@H](CC(=O)O)c1ccc(OCc2ccc3ccn(Cc4cnn(C)c4)c3c2C)cc1` [Example 63, (S)-3-{4-[7-methyl-1-(1-methyl-1H-pyrazol-4-ylmethyl)-1H-indol-6-ylmethoxy)-phenyl]-hex-4-ynoic acid], the pEC50 was 7.30 to 9.00.

In the case of `CC#C[C@@H](CC(=O)O)c1ccc(OCc2ccc3ccn(Cc4ncccn4)c3c2C)cc1` [Example 64, (S)-3-[4-(7-methyl-1-pyrimidin-2-ylmethyl-1H-indol-6-ylmethoxy)-phenyl]-hex-4-ynoic acid], the pEC50 is 6.30 to 7.30.

As for `O=C(O)CC(C1=NOCC1)c1ccc(OCc2ccc3cnn(Cc4ccccc4)c3c2)cc1` (stereo not shown) [Example 65, 3-[4-(1-benzyl-1H-indazol-6-ylmethoxy)-phenyl]-3-(4,5-dihydro-isoxazol-3-yl)-propanoic acid], the pEC50 was 7.30.

Turning to `CC#C[C@@H](CC(=O)O)c1ccc(OCc2ccc3cnn(Cc4ccc(F)cc4)c3c2)cc1` [Example 66, (S)-3-{4-[1-(4-fluoro-benzyl)-1H-indazol-6-ylmethoxy]-phenyl}-hex-4-ynoic acid], the pEC50 is 8.00.

Regarding `CC#C[C@@H](CC(=O)O)c1ccc(OCc2ccc3cn(Cc4ccc(F)cc4)nc3c2)cc1` [Example 67, (S)-3-{4-[2-(4-fluoro-benzyl)-2H-indazol-6-ylmethoxy]-phenyl}-hex-4-ynoic acid], the pEC50 was 7.15.

`CC#C[C@@H](CC(=O)O)c1ccc(OCc2ccc3cnn(Cc4ncccn4)c3c2)cc1` [Example 68, (S)-3-[4-(1-pyrimidin-2-ylmethyl-1H-indazol-6-ylmethoxy)-phenyl}-hex-4-ynoic acid]: the pEC50 was 6.30 to 7.30.

Consider `CC#C[C@@H](CC(=O)O)c1ccc(OCc2ccc3cn(Cc4ncccn4)nc3c2)cc1` [Example 69, (S)-3-[4-(2-pyrimidin-2-ylmethyl-2H-indazol-6-ylmethoxy]-phenyl}-hex-4-ynoic acid], for which the pEC50 is ≤ 6.30.

`CC#C[C@@H](CC(=O)O)c1ccc(OCc2ccc3cnn(Cc4cnccn4)c3c2)cc1` [Example 70, (S)-3-[4-(1-pyrazin-2-ylmethyl-1H-indazol-6-ylmethoxy]-phenyl}-hex-4-ynoic acid]: the pEC50 is 6.30 to 7.30.

Consider `CC#C[C@@H](CC(=O)O)c1ccc(OCc2cccc3c2cnn3Cc2ccc(F)cc2)cc1` [Example 71, (S)-3-{4-[1-(4-fluoro-benzyl)-1H-indazol-4-ylmethoxy]-phenyl}-hex-4-ynoic acid], for which the pEC50 was 7.70.

Turning to `CC#C[C@@H](CC(=O)O)c1ccc(OCc2cccc3nn(Cc4ccc(F)cc4)cc23)cc1` [Example 72, (S)-3-{4-[2-(4-fluoro-benzyl)-2H-indazol-4-ylmethoxy]-phenyl}-hex-4-ynoic acid], the pEC50 is 7.52.

On to `CC#C[C@@H](CC(=O)O)c1ccc(OCc2ccc3cnn(Cc4cnc(C)cn4)c3c2)cc1` [Example 73, (S)-3-{4-[1-(5-methyl-pyrazin-2-ylmethyl)-1H-indazol-6-ylmethoxy]-phenyl}-hex-4-ynoic acid], for which the pEC50 is 6.30 to 7.30.

Regarding `CC#C[C@@H](CC(=O)O)c1ccc(OCc2ccc3cn(Cc4cnc(C)cn4)nc3c2)cc1` [Example 74, (S)-3-{4-[2-(5-methyl-pyrazin-2-ylmethyl)-2H-indazol-6-ylmethoxy]-phenyl}-hex-4-ynoic acid], the pEC50 was ≤ 6.30.

`CC#C[C@@H](CC(=O)O)c1ccc(OCc2ccc3cnn(Cc4ccncn4)c3c2)cc1` [Example 75, (S)-3-[4-(1-pyrimidin-4-ylmethyl-1H-indazol-6-ylmethoxy)-phenyl]-hex-4-ynoic acid]: the pEC50 is 6.30 to 7.30.

For `CC#C[C@@H](CC(=O)O)c1ccc(OCc2ccc3cn(Cc4ccncn4)nc3c2)cc1` [Example 76, (S)-3-[4-(2-pyrimidin-4-ylmethyl-2H-indazol-6-ylmethoxy]-phenyl}-hex-4-ynoic acid], the pEC50 was ≤ 6.30.

For `CC#C[C@@H](CC(=O)O)c1ccc(OCc2cccc3nn(Cc4cnc(C)cn4)cc23)cc1` [Example 78, (S)-3-{4-[2-(5-methyl-pyrazin-2-ylmethyl)-2H-indazol-4-ylmethoxy]-phenyl}-hex-4-ynoic acid], the pEC50 was 6.30 to 7.30.

Turning to `CC#C[C@@H](CC(=O)O)c1ccc(OCc2ccc3cnn(Cc4cccnc4)c3c2)cc1` [Example 79, (S)-3-[4-(1-pyridin-3-ylmethyl-1H-indazol-6-ylmethoxy)-phenyl]-hex-4-ynoic acid], the pEC50 is 7.30 to 9.00.

Regarding `CC#C[C@@H](CC(=O)O)c1ccc(OCc2ccc3cn(Cc4cccnc4)nc3c2)cc1` [Example 80, (S)-3-[4-(2-pyridin-3-ylmethyl-2H-indazol-6-ylmethoxy)-phenyl]-hex-4-ynoic acid], the pEC50 was ≤ 6.30.
